Laboratory results from patent US12325706B2, “Polymorphic form of sepiapterin” (PTC Therapeutics MP, Inc., priority 2016, dated 2025).
Converted amounts (≈) assume the structure as drawn. “Also recorded” adds a separate entry of the source.

Key:
Assay type in all cases: physicochemical
[1] = Stability of crystalline Form A to grinding and sieving (XRPD); conditions: mortar and pestle, 140 mesh sieve
Description: A weight loss of 5.3% was observed up to 150° C. on TGA. […] (peak temperature). The starting material contained large particles with size over 100 μm. It was ground and characterized by XRPD, TGA and DSC. […] A weight loss of 1.9% was observed after N2 purging for 30 min to remove the absorbed water, followed by a second-step weight loss of 13.7% from 30° C. to 150° C. on TGA. […] (peak temperature).
Crystalline form A of sepiapterin of the invention was subjected to grinding and sieving process comprising grinding with a mortar and pestle and passing the material through a 140 mesh sieve. […] This process was repeated until all material was passed through the sieve.

[2] = Storage stability of sepiapterin polymorph forms, HPLC purity; design: Impurity RRT 1.06 (HPLC) / Impurity RRT 1.08 (HPLC) / Impurity RRT 1.17 (HPLC) / Impurity RRT 1.21 (HPLC) / Impurity RRT 1.25 (HPLC) / Impurity RRT 0.62 (HPLC) / Impurity RRT 0.89 (HPLC) / Impurity RRT 0.95 (HPLC) / Impurity RRT 0.60 (HPLC): unit not given here; conditions: for % of Initial / Purity (area %): 10% RH
Description: (§1) Form A and F samples were placed in chambers with silica gel to remove water (the relative humidity was measured to be ˜10% RH) at different temperatures. Form D samples were placed in chambers with water (relative humidity was estimated to be ˜100% RH) at different temperatures.
(§2) The HPLC purities and XRD patterns were obtained for each of Form A/F/D samples stored at various temperatures.
Samples of sepiapterin free base polymorph Forms D, F, and A were stored at room temperature (RT), 35° C., and 50° C. The samples were analyzed by HPLC at 1 week and 4 week intervals.

[3] = Approximate solubility of starting material at RT
[4] = Storage stability of sepiapterin polymorph forms, form change by XRD; conditions: 10% RH
Description: as §1, §2

[5] = 35° C./10% RH, 1 w, listed as Polymorph A
[6] = 35° C./10% RH, 4 w, listed as Polymorph A
[7] = 50° C./10% RH, 1 w, listed as Polymorph A
[8] = 50° C./10% RH, 4 w, listed as Polymorph A
[9] = RT/10% RH, 1 w, listed as Polymorph A
[10] = RT/10% RH, 4 w, listed as Polymorph A

## C[C@H](O)C(=O)C1=Nc2c(nc(N)[nH]c2=O)NC1 [Form A, sepiapterin]
[1]
  Physical form stability to grinding and sieving (XRPD): no form change was observed after grinding; also recorded: stable to the grinding and sieving process; also recorded: confirms the physical form stability
[2]; 35° C./10% RH, 1 w
  Impurity RRT 0.62 (HPLC): 0.24
  Impurity RRT 0.89 (HPLC): <0.05
  Impurity RRT 1.06 (HPLC): <0.05
  Impurity RRT 1.21 (HPLC): <0.05
  Impurity RRT 1.25 (HPLC): <0.05
[2]; [5]
  Impurity RRT 0.95 (HPLC): 1.36
  Impurity RRT 1.08 (HPLC): 0.28
  Impurity RRT 1.17 (HPLC): 0.16
  Sepiapterin RRT 1.00 (HPLC), amount of sepiapterin: 97.97%
[2]; 35° C./10% RH, 4 w
  Impurity RRT 0.62 (HPLC): 1.03
  Impurity RRT 0.89 (HPLC): <0.05
  Impurity RRT 1.06 (HPLC): <0.05
  Impurity RRT 1.08 (HPLC): <0.05
  Impurity RRT 1.21 (HPLC): <0.05
  Impurity RRT 1.25 (HPLC): <0.05
[2]; [6]
  Impurity RRT 0.95 (HPLC): 2.70
  Impurity RRT 1.17 (HPLC): 0.16
  Sepiapterin RRT 1.00 (HPLC), amount of sepiapterin: 96.06%
[2]; 50° C./10% RH, 1 w
  Impurity RRT 0.62 (HPLC): 0.68
  Impurity RRT 0.89 (HPLC): <0.05
  Impurity RRT 1.06 (HPLC): 0.45
  Impurity RRT 1.21 (HPLC): <0.05
  Impurity RRT 1.25 (HPLC): <0.05
[2]; [7]
  Impurity RRT 0.95 (HPLC): 3.48
  Impurity RRT 1.08 (HPLC): 0.08
  Impurity RRT 1.17 (HPLC): 0.16
  Sepiapterin RRT 1.00 (HPLC), amount of sepiapterin: 95.15%
[2]; 50° C./10% RH, 4 w
  Impurity RRT 0.62 (HPLC): 2.59
  Impurity RRT 0.89 (HPLC): 0.06
  Impurity RRT 1.06 (HPLC): <0.05
  Impurity RRT 1.17 (HPLC): 0.17
  Impurity RRT 1.21 (HPLC): 0.06
  Impurity RRT 1.25 (HPLC): 0.11
[2]; [8]
  Impurity RRT 0.95 (HPLC): 7.67
  Impurity RRT 1.08 (HPLC): 0.85
  Sepiapterin RRT 1.00 (HPLC), amount of sepiapterin: 88.49%
[2]; 50° C./10% RH, 4 w, listed as polymorph A
  Sepiapterin RRT 1.00 (HPLC), amount of sepiapterin: 88.49%
[2]; Initial
  Impurity RRT 0.89 (HPLC): <0.05
  Impurity RRT 1.06 (HPLC): <0.05
  Impurity RRT 1.08 (HPLC): <0.05
  Impurity RRT 1.17 (HPLC): 0.17
  Impurity RRT 1.21 (HPLC): <0.05
  Impurity RRT 1.25 (HPLC): <0.05
[2]; Initial, listed as Polymorph A
  Impurity RRT 0.62 (HPLC): 0.08
  Impurity RRT 0.95 (HPLC): 0.42
  Sepiapterin RRT 1.00 (HPLC), amount of sepiapterin: 99.33%
[2]; Initial, listed as polymorph A
  Sepiapterin RRT 1.00 (HPLC), amount of sepiapterin: 99.33%
[2]; RT/10% RH, 1 w
  Impurity RRT 0.62 (HPLC): 0.16
  Impurity RRT 0.89 (HPLC): <0.05
  Impurity RRT 1.06 (HPLC): <0.05
  Impurity RRT 1.17 (HPLC): 0.16
  Impurity RRT 1.21 (HPLC): <0.05
  Impurity RRT 1.25 (HPLC): <0.05
[2]; [9]
  Impurity RRT 0.95 (HPLC): 0.77
  Impurity RRT 1.08 (HPLC): 0.11
  Sepiapterin RRT 1.00 (HPLC), amount of sepiapterin: 98.80%
[2]; RT/10% RH, 4 w
  Impurity RRT 0.62 (HPLC): 0.37
  Impurity RRT 0.89 (HPLC): <0.05
  Impurity RRT 1.06 (HPLC): <0.05
  Impurity RRT 1.08 (HPLC): <0.05
  Impurity RRT 1.17 (HPLC): 0.16
  Impurity RRT 1.21 (HPLC): <0.05
  Impurity RRT 1.25 (HPLC): <0.05
[2]; [10]
  Impurity RRT 0.95 (HPLC): 1.29
  Sepiapterin RRT 1.00 (HPLC), amount of sepiapterin: 98.18%
[2]; initial, before storage, listed as Form λ
  Purity of initial samples by HPLC: 99.3 area %
[2]; storage 1 week, 35° C.
  % of Initial: 98.6%
  Purity (area %): 98.0 area %
[2]; storage 1 week, 50° C.
  % of Initial: 95.8%
  Purity (area %): 95.2 area %
[2]; storage 1 week, RT
  % of Initial: 99.5%
  Purity (area %): 98.8 area %
[2]; storage 4 weeks, 35° C.
  % of Initial: 96.7%
  Purity (area %): 96.1 area %
[2]; storage 4 weeks, 50° C.
  % of Initial: 89.1%
  Purity (area %): 88.5 area %
[2]; storage 4 weeks, RT
  % of Initial: 98.8%
  Purity (area %): 98.2 area %
[2]; storage up to 4 weeks at RT, 35° C., 50° C.
  Stability on storage as determined by HPLC, comparison of forms in words: significantly less stability
[3]; organic solvent or mixture, 1,4-Dioxane, RT
  solubility: < 1700 µg/mL
[3]; organic solvent or mixture, 2-MeTHF, RT
  solubility: < 2000 µg/mL
[3]; organic solvent or mixture, ACN, RT
  solubility: < 1700 µg/mL
[3]; organic solvent or mixture, Acetone, RT
  solubility: < 1800 µg/mL
[3]; organic solvent or mixture, CHCl3, RT
  solubility: < 1600 µg/mL
[3]; organic solvent or mixture, DCM, RT
  solubility: < 1500 µg/mL
[3]; organic solvent or mixture, DMAc, RT
  solubility: > 28000 µg/mL
[3]; organic solvent or mixture, DMSO, RT
  solubility: > 34000 µg/mL
[3]; organic solvent or mixture, EtOAc, RT
  solubility: < 2500 µg/mL
[3]; organic solvent or mixture, EtOH, RT
  solubility: < 1500 µg/mL
[3]; organic solvent or mixture, IPA, RT
  solubility: < 1300 µg/mL
[3]; organic solvent or mixture, IPAc, RT
  solubility: < 2700 µg/mL
[3]; organic solvent or mixture, MIBK, RT
  solubility: < 2000 µg/mL
[3]; organic solvent or mixture, MTBE, RT
  solubility: < 2000 µg/mL
[3]; organic solvent or mixture, MeOH, RT
  solubility: 1700 to 3400 µg/mL (≈ 7.17 to 14.3 mM)
[3]; organic solvent or mixture, NMP, RT
  solubility: > 48000 µg/mL
[3]; organic solvent or mixture, THF, RT
  solubility: < 1900 µg/mL
[3]; organic solvent or mixture, Toluene, RT
  solubility: < 2400 µg/mL
[3]; organic solvent or mixture, n-Heptane, RT
  solubility: < 2100 µg/mL
[3]; water, H2O, RT
  solubility: 1600 to 3200 µg/mL (≈ 6.74 to 13.5 mM)
[4]; storage 1 week, 35° C.
  Form change: No
[4]; storage 1 week, 50° C.
  Form change: No
[4]; storage 1 week, RT
  Form change: No
[4]; storage 4 weeks, 35° C.
  Form change: No
[4]; storage 4 weeks, 50° C.
  Form change: No
[4]; storage 4 weeks, RT
  Form change: No
